Data taken from patent publication US20090220528A1, “Stimulation of Toll-Like Receptors on T Cells” (THE TRUSTEES OF THE UNIVERISTY OF PENNSYLVANIA CNETER FOR …, priority 2005, published 2009).

How the values were obtained:
[1] = test system: activated DO11.10 CD4+ T cells; assay: Adoptive transfer and ex vivo proliferation analysis; type: in vivo, mouse
Protocol: Five million purified DO11.10 CD4^+ T cells were activated by pOVA-pulsed APCs (1 μg/ml), purified with magnetic beads, treated with poly(I:C) (90 μg/ml), CpG DNA (30 μM), LPS (100 ng/ml), or left untreated for 16 hours, washed in PBS twice, and then adoptively transferred into BALB/c hosts. At day 30, spleen and peripheral lymph nodes were harvested and stained with anti-CD4 monoclonal antibody and the DO11.10 clonotypic monoclonal antibody KJI-26. Survival of activated DO11.10 CD4^+ T cells in each host was determined by FACS analysis and is expressed as a percent with respect to the total number of CD4^+ T cells found in either the host spleen or lymph nodes along with a mean (thick line) for each treatment group. […] [^3H]Thymidine was added to cultures for an additional 8 hour and read on a beta scintillation counter and is expressed as a mean for each treatment group ±SEM.
To address this question, DO11.10 CD4^+ T cells were first activated with pOVA-pulsed APCs, purified by magnetic beads, treated with TLR ligands for 16 hours, washed, and then adoptively transferred into congenic BALB/c hosts. Survival and ex vivo proliferative responses were assessed 30 days later (FIGS. 5A and 5B). […]

activated CD4+ T cells = assay: NF-κB and MAP kinase signaling analysis (phospho-specific Western blot); type: cell-based, mouse; conditions: anti-CD3/anti-CD28 activated BALB/c CD4+ T cells (FIG. 2)
Protocol: BALB/c CD44^lowCD25^−CD4^+ T cells were activated with plate-bound 1.0 μg/ml anti-CD3 and 1.0 μg/ml anti-CD28 monoclonal antibodies for 16 hours, washed, and rested for 8 hours at 37° C. Activated (1.5×10^6) CD4^+ T cells were then treated with TLR ligands for the indicated times, lysed in 1×SDS loading buffer (Bio-Rad Life Sciences), resolved on a 12% bis-Tris SDS-PAGE gel (Life Technologies), transferred to nitrocellulose filters (Life Technologies), and either probed with rabbit anti-mouse phospho-specific Abs for p-IκBα, p-p38, p-extracellular signal-regulated kinase (ERK) 1/2, or p-C-Jun N-terminal kinase (JNK)/stress-activated protein kinase (SAPK). To assess total amounts of signaling molecules, filters were also probed with either rabbit anti-mouse IκBα, p-38, ERK-1/2, or JNK/SAPK antibodies. Detection was conducted with HRP-conjugated goat ant-rabbit antibodies, ECL reagent (Amersham), and X-OMAT Film (Kodak, Rochester, N.Y.). All antibodies were purchased from Cell Signal Technologies (Beverly, Mass.).
TLR ligands induce the activation of nuclear factor NF-κB and MAP kinases in APCs (Akira, 2003, J. Biol. Chem. 278:38105; Martin et al., 2002 Biochem. Biophys. Acta. 1592:265). The next set of experiments were designed to assess whether TLR ligands could also induce NF-κB and MAP kinase activity in activated CD4^+ T cells (FIG. 2). […]

[2] = test system: activated DO11.10 CD4+ T cells; assay: Proliferation by CFSE dye dilution; type: cell-based, mouse; conditions: 72 hours following activation; relative to untreated activated controls (FIG. 3D)
Protocol: Following activation, purified CD4^+ T cells were washed twice in PBS and replated in culture medium at 10^6/ml. Cultures were left untreated or treated with either TLR ligands and/or inhibitors for indicated times and concentrations. Following incubation, CD4^+ T cells were washed twice in PBS/2% FBS and stained with CD4-allophycocyanin monoclonal antibody and 7-aminoactinomycin D (7-AAD; BD PharMingen) or annexin (BD PharMingen) and survival was assessed by exclusion of either of these two stains. […] Live CD4^+ T cell counts were calculated by taking the ratio of the number of CD4^+CD45.1^−7-ADD^− events collected to the number CD45.1^+ events collected and multiplying by 50,000. Proliferation was measured by CFSE dye dilution as previously described (Wells et al., 1997 J. Clin. Invest. 100:3173).
Without wishing to be bound by any particular theory, the increases in live cells numbers observed could be explained by TLR ligand-mediated increases in CD4^+ T cell proliferation. […] To address this issue, CFSE-labeled DO11.10 CD4^+ T cells were first activated by pOVA-pulsed APCs for 16 hours, purified by magnetic beads, and then treated with TLR ligands and assessed for proliferation 72 hours following activation (FIG. 3D).

poly(I:C) was tested, and the “increase in percentage of recovered DO11.10 CD4+ T cells in host spleen” value ([1]; day 30 after adoptive transfer into BALB/c hosts, cells treated 16 hours before transfer, vs LPS-treated or untreated cells (FIG. 5A)) was ~2 fold, the “increase in proliferative response to pOVA of splenic CD4+ T cells” value ([1]; ex vivo, day 30, vs hosts that received LPS-treated or untreated cells (FIG. 5B)) was 2 fold and the “NF-κB activity (phosphorylation of IκBα)” value (activated CD4+ T cells) was “induce rapid NF-κB activity”. For the same substance, the “phosphorylation of p38 MAPK, ERK 1/2 and JNK/SAPK” value (activated CD4+ T cells) was “able to effect phosphorylation” and the “proliferation of activated CD4+ T cells” value [2] was “did not enhance proliferation”.
